Consider 1 molecule from patent US20090259054A1, “Methods and Compositions for the Treatment of Angiogenesis and Macular Degeneration” (The Texas A&M University System, priority 2008, published 2009).

Entries after “also recorded” stand apart in the source; their conditions may differ.

One data set has as its target T1, VEGFR2 (Homo sapiens, UniProt P35968).
T1 construct: endogenous in cells; host or cells: HUVEC
Briefly: VEGFR2 tyrosine phosphorylation in VEGF stimulated HUVEC cells (immunoprecipitation, Western blotting). Conditions: 1 nM GA, 4 nM VEGF, 5 minutes. It is filed as cell-based. On the procedure:
(§1) After starvation in ECGM medium without serum overnight, HUVEC cells were washed with 1×PBS twice, followed with incubation in M199 medium. HUVEC cells were then treated with 1 nM of GA and/or 4 nM of VEGF for 5 minutes, then subjected to immunoprecipitation using anti-VEGFR2 antibody. Anti-phosphotyrosine antibody was used for the detection of phosphorylation of the tyrosine residue of VEGFR2. […] Reaction cocktail containing 100 ng of active VEGFR2 was incubated with different concentrations of GA for 5 minutes at room temperature. Substrate peptide cocktail was added to the pre-incubated reaction cocktail/GA compound. After incubation at room temperature for 30 minutes, stop buffer was added to halt the reaction. 25 μl of each reaction was then transferred with 75 μl dH2O per well into a 96-well streptavidin coated plate and incubated at room temperature for 60 minutes. […] The stop solution was added and the plate was detected at 405 nm. […]
VEGFR2 is the primary receptor in VEGF signaling pathway that regulates endothelial cell proliferation, migration, differentiation, tube formation, and angiogenesis. […] HUVEC cells were stimulated with VEGF; phosphorylation and activation of VEGFR2 was detected by immunoprecipitation with anti-VEGFR2 (Flk-1) antibody and by Western blotting with anti-pTyr-antibody for phosphorylation of VEGFR2.

For data set [1] the following is noted: 4 mg/kg GA, 1 treatment every two days; cited from earlier work.
For a further data set, the system named is C57BL/6 mice. Briefly: Matrigel plug assay (VEGF dependent angiogenesis in vivo). Conditions: VEGF 4 ng/ml, 7 days. Here is the method:
Matrigel (0.5 ml/plug) with no VEGF or GA, VEGF (4 ng/ml) but no GA, VEGF (4 ng/ml) and 0.1 μM GA or 0.2 μM GA in liquid form at 4° C., respectively, were injected subcutaneously in the midventral abdominal region of 5-6 week old C57BL/6 mice (five mice for each group). After 7 days, the mice were sacrificed and the plugs were removed. Each concentration had 4-5 Matrigel plugs. The Matrigel plugs were fixed with formalin and embedded with paraffin. The 5 μm sections were stained with H&E staining. The number of erythrocyte-filled blood vessels in the high power microscope field (HPF, 200×) was recorded (plug number=4-5, t-test, p<0.005).

The test system of the next data set is mice exposed to OIR. Briefly: Mouse oxygen-induced ischemic retinopathy (OIR) model, retinal neovascularization. Conditions: GA 10 mg/kg, P17 mice exposed to OIR, p<0.001. In kind it is in vivo. On the procedure: FIG. 9B is a bar graph providing a quantitative assessments of retinal neovascularization in eyes from P17 control and GA-treated mice exposed to OIR. Data in each column are the mean SD values from four eyes of four mice. […] GA concentration was used as 10 mg/kg for this mouse model. Assessment of retinal neovasculature in control (left) and GA-treated (right) mice during OIR.P7 mice were exposed to a cycle of hyperoxia and normoxia, and eyes were removed for appropriate analysis. The abnormal angiogenesis associated with vitreal invasion can be seen as glomeruloid-like tufts of cell (arrow).

A further data set has as its target T2, VEGF Receptor 2 (Homo sapiens, UniProt P35968).
T2 construct: purchased Cell Signaling Technology
Briefly: VEGF Receptor 2 inhibition assay (HTScan VEGF receptor 2 kinase assay kit). It is filed as biochemical. Conditions: 100 ng active VEGFR2. On the procedure: as §1
12.5 μl of the 4× reaction cocktail containing 100 ng VEGF Receptor 2 (supplied from the HTScan® VEGF receptor 2 kinase assay kit, Cell Signaling Technology, USA) was incubated with 12.5 μl/tube of GA for 5 minutes at room temperature. […] The plate was then detected at 405 nm with VERSAMAX microplate reader (Molecular Devices). […]

In general, IC50 refers to the midpoint of a concentration-inhibition curve. High values mean a need for much substance, low ones inhibition by little substance.

T1 sequence (P35968 20-1356): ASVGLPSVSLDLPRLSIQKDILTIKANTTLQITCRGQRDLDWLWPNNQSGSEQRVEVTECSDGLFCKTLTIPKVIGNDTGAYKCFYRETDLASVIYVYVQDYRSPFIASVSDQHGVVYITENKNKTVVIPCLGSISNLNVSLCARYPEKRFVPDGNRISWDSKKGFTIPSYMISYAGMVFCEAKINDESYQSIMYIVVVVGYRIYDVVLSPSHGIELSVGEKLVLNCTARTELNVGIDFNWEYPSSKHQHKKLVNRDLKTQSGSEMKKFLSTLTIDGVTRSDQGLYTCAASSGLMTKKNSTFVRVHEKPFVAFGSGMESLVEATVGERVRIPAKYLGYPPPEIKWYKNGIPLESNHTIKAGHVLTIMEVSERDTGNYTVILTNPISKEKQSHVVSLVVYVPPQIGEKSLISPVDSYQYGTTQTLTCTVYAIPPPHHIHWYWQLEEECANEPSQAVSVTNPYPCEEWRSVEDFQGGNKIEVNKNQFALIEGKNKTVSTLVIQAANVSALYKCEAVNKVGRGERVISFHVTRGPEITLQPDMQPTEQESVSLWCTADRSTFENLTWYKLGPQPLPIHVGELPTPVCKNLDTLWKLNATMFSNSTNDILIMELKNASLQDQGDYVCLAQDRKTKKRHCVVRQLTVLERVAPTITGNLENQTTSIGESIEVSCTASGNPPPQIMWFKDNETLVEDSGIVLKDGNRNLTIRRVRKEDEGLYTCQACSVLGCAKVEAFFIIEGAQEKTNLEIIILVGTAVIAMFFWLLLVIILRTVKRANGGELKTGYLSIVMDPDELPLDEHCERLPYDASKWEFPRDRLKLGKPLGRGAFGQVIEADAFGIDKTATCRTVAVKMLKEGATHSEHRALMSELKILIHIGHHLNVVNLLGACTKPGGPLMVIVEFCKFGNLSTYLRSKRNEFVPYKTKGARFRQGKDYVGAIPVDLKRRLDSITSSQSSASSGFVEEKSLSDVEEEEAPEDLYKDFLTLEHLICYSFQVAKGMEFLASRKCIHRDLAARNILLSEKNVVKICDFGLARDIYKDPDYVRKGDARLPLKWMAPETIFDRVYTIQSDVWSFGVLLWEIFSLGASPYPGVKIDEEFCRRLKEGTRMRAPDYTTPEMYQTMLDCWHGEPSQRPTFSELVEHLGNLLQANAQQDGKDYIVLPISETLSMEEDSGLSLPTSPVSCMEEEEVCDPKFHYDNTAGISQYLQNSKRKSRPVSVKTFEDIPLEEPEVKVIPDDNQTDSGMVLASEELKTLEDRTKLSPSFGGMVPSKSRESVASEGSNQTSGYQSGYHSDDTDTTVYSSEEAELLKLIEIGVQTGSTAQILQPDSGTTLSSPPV
T2 sequence (P35968 789-1356 limits assumed): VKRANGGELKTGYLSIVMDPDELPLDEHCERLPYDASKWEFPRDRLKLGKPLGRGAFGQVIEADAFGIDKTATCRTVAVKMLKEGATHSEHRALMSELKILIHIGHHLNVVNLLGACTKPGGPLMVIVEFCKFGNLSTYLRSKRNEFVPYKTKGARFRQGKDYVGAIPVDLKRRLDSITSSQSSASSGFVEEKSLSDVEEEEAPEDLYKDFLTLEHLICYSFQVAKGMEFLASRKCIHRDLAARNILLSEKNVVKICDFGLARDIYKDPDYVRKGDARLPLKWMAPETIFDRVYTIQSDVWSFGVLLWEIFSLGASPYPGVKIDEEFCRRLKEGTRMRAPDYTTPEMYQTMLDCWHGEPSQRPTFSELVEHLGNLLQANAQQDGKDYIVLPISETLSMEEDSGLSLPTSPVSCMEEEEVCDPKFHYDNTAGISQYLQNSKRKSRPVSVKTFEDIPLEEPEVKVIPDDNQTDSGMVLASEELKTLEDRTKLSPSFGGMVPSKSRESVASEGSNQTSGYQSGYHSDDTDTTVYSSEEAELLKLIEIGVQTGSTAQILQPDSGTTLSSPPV

For the molecule `CC(C)=CCC[C@]1(C)C=Cc2c(O)c3c(c(CC=C(C)C)c2O1)O[C@]12C(=C[C@@H]4C[C@H]1C(C)(C)O[C@@]2(C/C=C(/C)C(=O)O)C4=O)C3=O` [GA, gambogic acid], at VEGFR2, the “Phosphorylation and activation of VEGFR2 in HUVEC cells” value is listed as “dramatically inhibited the phosphorylation of VEGFR2; also recorded: strongly inhibited VEGFR2 kinase activity”. Also, the Toxicity of dosage result in data set [1] was “non-toxic dosage”. The “VEGF dependent angiogenesis in Matrigel plugs” value in the data set with C57BL/6 mice (0.1 μM GA) is reported as “inhibited VEGF dependent angiogenesis”; in the data set with C57BL/6 mice (0.2 μM GA) it was “totally abolished angiogenesis”. Also, the Retinal neovascularization entry in the data set with mice exposed to OIR is listed as “significantly inhibits retinal neovascularization; also recorded: significant difference in the degree of neovascularization”. On VEGF Receptor 2, this molecule yielded an IC50 of 0.012 nM.
